Data reported in publication PMC8365602 (Journal of Medicinal Chemistry, 2021).
Like-named read-outs stand apart in the source and are kept apart here.

Key:
[1] = biological target: T1, 5-LOX (Homo sapiens, UniProt P09917); set-up: made in house; host or cells: E. coli Bl21 (DE3); conditions: supplementary csv; # published in ref Pein et al.4; read-out: IC50 (5-LOX enzyme); cited from earlier work
T1 sequence (P09917 1-674): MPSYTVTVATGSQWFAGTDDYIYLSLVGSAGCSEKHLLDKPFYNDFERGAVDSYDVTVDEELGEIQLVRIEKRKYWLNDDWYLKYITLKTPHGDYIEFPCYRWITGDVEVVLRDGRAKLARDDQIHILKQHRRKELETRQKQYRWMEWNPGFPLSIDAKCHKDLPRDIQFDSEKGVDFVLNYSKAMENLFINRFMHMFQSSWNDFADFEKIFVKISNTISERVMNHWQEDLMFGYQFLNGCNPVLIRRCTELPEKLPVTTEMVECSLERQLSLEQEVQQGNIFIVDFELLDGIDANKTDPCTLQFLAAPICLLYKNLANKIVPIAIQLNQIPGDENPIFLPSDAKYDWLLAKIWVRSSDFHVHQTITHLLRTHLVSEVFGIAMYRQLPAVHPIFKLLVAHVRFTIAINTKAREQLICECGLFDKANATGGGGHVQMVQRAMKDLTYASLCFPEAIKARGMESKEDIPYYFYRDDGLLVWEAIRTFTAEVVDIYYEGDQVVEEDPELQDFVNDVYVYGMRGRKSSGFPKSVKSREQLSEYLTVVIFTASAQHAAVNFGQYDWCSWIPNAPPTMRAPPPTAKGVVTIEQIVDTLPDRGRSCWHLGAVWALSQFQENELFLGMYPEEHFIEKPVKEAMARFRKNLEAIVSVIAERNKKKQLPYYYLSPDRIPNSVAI

[2] = biological target: T1, 5-LOX; assay: Cell-free 5-LOX activity (isolated human recombinant enzyme)
[3] = biological target: T1, 5-LOX; assay: 5-LOX product formation in activated PMNL; conditions: for remaining activity at 3 µM: PMNL;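 as to all read-outs here: freshly isolated human PMNL in PBS pH 7.4 plus glucose, preincubated 10 min at 37 °C with compound, 5-LOX products (all-trans LTB4 isomers, 5-HETE) quantified by RP-HPLC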
Procedure: These volunteers regularly donated blood (every 8–12 weeks) and were physically inspected by a clinician.
Erythrocytes were removed by dextran sedimentation and hypotonic lysis. PMNL were obtained from the cell pellet and platelets from the supernatant.
Freshly isolated PMNL (5 × 10^6) suspended in PBS pH 7.4 with 1 mg/mL glucose or freshly withdrawn human whole blood were preincubated with the test compounds for 10 min (or as indicated) at 37 °C. […] The reaction was stopped with an equal volume of methanol.

[4] = biological target: T1, 5-LOX; conditions: supplementary csv; # published in ref Pein et al.4; read-out: IC50 (5-LOX PMNL); cited from earlier work
[5] = test system: reconstructed human epidermis (RHE); assay: Experimental atopic dermatitis in reconstructed human epidermis (RHE); type: cell-based; conditions: 1 μM, control
Procedure: Compound 27a was evaluated in an inflammatory model of RHE by Synelvia S.A.S. (Labège, France) according to the company’s protocol.[88] In brief, primary human keratinocytes were used to generate RHE on polycarbonate filters as described.[88] RHE was allowed to acclimate for 6 days (5% CO2, 37 °C) prior to incubation with 27a (5, 10, 25 μM), dexamethasone (1 μM), or vehicle (0.05% DMSO), and a proinflammatory cytokine cocktail for 4 days at 5% CO2 and 37 °C. The culture medium including compounds and cytokines was changed on days 6, 8, and 10. Each culture condition was repeated three times. Acute cytotoxicity of 27a was excluded at the concentrations studied within 24 h by measuring the mitochondrial dehydrogenase activity (MTT assay).
Morphological changes (i.e., spongiosis and the formation of keratohyalin granules) were evaluated for sections of paraffin-embedded RHEs after hematoxylin-eosin staining.[89] The permeability of the skin barrier was estimated from the transepidermal water loss at the RHE surface.[90] The surface pH was determined with a pH electrode as reported.[89] The permeability of the stratum corneum was addressed by applying Lucifer yellow onto the RHE surface and inspecting the penetration by fluorescence microscopy.[88] TSLP and IL-8 levels were analyzed by ELISA (according to the specifications of Synelvia S.A.S.) in the culture medium on day 2 and day 4 after addition of cytokines, respectively.

[6] = Radical scavenging activity (DPPH); conditions: 25 μM, positive control
Procedure: Compound 27a was incubated with 2,2-diphenyl-1-picrylhydrazyl (DPPH, Sigma-Aldrich; 50 mM) in ethanol for 30 min, and the absorbance was measured at 520 nm using a Multiskan Spectrum Microplate Reader (Thermo Fisher Scientific).[72] The positive control ascorbic acid (Sigma-Aldrich; 25 μM) scavenged DPPH radicals by 36 ± 11%.

[7] = test system: zymosan-induced murine peritonitis; assay: Zymosan-induced peritonitis in mice; type: in vivo; conditions: 3 mg/kg p.o., 30 min post zymosan
Procedure: Male CD-1 mice (33–39 g, 6–8 weeks, Charles River Laboratories; Calco, Italy) and female BALB/c mice (20 g, 8 weeks, Charles River Laboratories) were fed with standard rodent chow and water and acclimated for 4 days at a 12 h light and 12 h dark schedule in a constant air-conditioned environment (21 ± 2 °C). Mice were randomly assigned to groups, and experiments were carried out during the light phase.
Zymosan (2 mg/mL in saline, i.p., 0.5 mL, Sigma-Aldrich) was injected at 30 min (i.p.) or 60 min (p.o.) post compound administration. Mice were sacrificed by inhalation of CO2 after another 30 min to determine LTC4 levels, lipid mediator profiles, metabolites, and vascular permeability and after 4 h to analyze LTB4 levels and cell infiltration.[72] Plasma and peritoneal exudates were collected, and cells were counted in exudates after trypan blue staining. Vascular permeability was measured by injection of Evans blue dye (40 mg/kg in saline, 0.3 mL, Sigma-Aldrich) into the tail vain directly before peritonitis induction.[72] The exudate was centrifuged (3000g, 5 min), and the absorbance was measured at 610 nm (DU730 spectrophotometer, Beckman Coulter, Krefeld, Germany). Levels of LTB4 and cysteinyl-LTs (dominated by LTC4) were quantified in the exudate by ELISA (Enzo Life Sciences, Lörrach, Germany) according to the manufacturer’s instructions. Compound 27a, its metabolites, and lipid mediators were extracted and analyzed by UPLC-MS/MS.

[8] = read-out: 5-LOX enzyme residual activity at 1 µM (Table S1)
[9] = read-out: 5-LOX PMNL residual activity at 3 µM (Table S1)

Row | remaining activity at 1 µM [2, 8] [%] | remaining activity at 3 µM [3, 9] [%] | Structure (SMILES) | IC50 [1] [nM] | IC50 [4] [nM] | other results
1 | 86.1 ± 8.3 | 88.6 ± 10.5 | Cc1c(C)c2c(c(C)c1O)CC[C@@](C)(CCC[C@H](C)CCC[C@H](C)CCCC(C)C)O2 [Compound 1a, α-tocopherol] | > 1000 | > 3000 | 
2 | 32.8 ± 9 | 79.6 ± 6.1 | Cc1cc(O)c(C)c2c1O[C@](C)(CCC[C@H](C)CCC[C@H](C)CCCC(C)C)CC2 [Compound 1b] | 750 ± 150 | > 3000 | 
3 | 47 ± 4.5 | 78.5 ± 13.6 | Cc1c(O)cc2c(c1C)O[C@](C)(CCC[C@H](C)CCC[C@H](C)CCCC(C)C)CC2 [Compound 1c] | 910 ± 150 | > 3000 | 
4 | 43.3 ± 7.2 | 107 ± 3.2 | Cc1cc(O)cc2c1O[C@](C)(CCC[C@H](C)CCC[C@H](C)CCCC(C)C)CC2 [Compound 1d, δ-tocopherol] |  | > 3000 | IC50 [2]: 600 ± 250 nM
5 | 16.9 ± 6.6 | 75.5 ± 4.5 | CC(C)=CCC/C(C)=C/CC/C(C)=C/CC[C@]1(C)CCc2c(C)c(O)c(C)c(C)c2O1 [Compound 6a] |  | > 3000 | 
6 | 6.4 ± 3.2 | 41.4 ± 8 | CC(C)=CCC/C(C)=C/CC/C(C)=C/CC[C@]1(C)CCc2c(C)c(O)cc(C)c2O1 [Compound 6b] | 190 ± 30 | 2110 ± 360 | 
7 | 6.7 ± 3.1 | 74.9 ± 8 | CC(C)=CCC/C(C)=C/CC/C(C)=C/CC[C@]1(C)CCc2cc(O)cc(C)c2O1 [Compound 6d, δ-tocotrienol] | 170 ± 100 | > 3000 | 
8 | 1.5 ± 0.4 | 21.6 ± 2.5 | Cc1c(C)c2c(c(C)c1O)CC[C@@](C)(CCCC(C)CCCC(C)CCCC(C)CO)O2 (stereo partly drawn) [Compound 9a, α-T-13′-CH2OH] | 350 ± 40 | 190 ± 50 | 
9 | 2.1 ± 0.3 | 22.6 ± 2.4 | Cc1cc(O)cc2c1O[C@](C)(CCCC(C)CCCC(C)CCCC(C)CO)CC2 (stereo partly drawn) [Compound 9b] | 120 ± 40 | 540 ± 180 | 
10 | 0.2 ± 0.1 | 13.2 ± 2 | C/C(=C\CC/C(C)=C/CC/C(C)=C/CC[C@]1(C)CCc2c(C)c(O)c(C)c(C)c2O1)CO [Compound 10a] | 110 ± 10 | 270 ± 100 | 
11 | 0.2 ± 0.1 | 7.7 ± 1.3 | C/C(=C\CC/C(C)=C/CC/C(C)=C/CC[C@]1(C)CCc2c(C)c(O)cc(C)c2O1)CO [Compound 10b] | 90 ± 30 | 380 ± 90 | 
12 | 2.7 ± 1.5 | 8.8 ± 1.9 | C/C(=C\CC/C(C)=C/CC/C(C)=C/CC[C@]1(C)CCc2cc(O)cc(C)c2O1)CO [Compound 10c] | 150 ± 50 | 1260 ± 330 | 
13 | 0 | 1.1 ± 1.1 | C/C(=C/CC/C(C)=C/CC/C(C)=C/CC[C@]1(C)CCc2cc(O)c(C)c(C)c2O1)CO [Compound 10d] | 120 ± 30 | 140 ± 20 | 
14 | 0.3 ± 0.2 | 2 ± 0.2 | C/C(=C/CC/C(C)=C/CC/C(C)=C/CC[C@]1(C)CCc2cc(O)cc(C)c2O1)CO [Compound 10e, δ-(Z)-deoxyamplexichromanol] | 140 ± 30 | 220 ± 40 | 
15 |  |  | C/C(=C\CC/C(C)=C/CC[C@]1(C)CCc2c(CO)c(O)cc(C)c2O1)CCC=C1COC(c2ccc([N+](=O)[O-])cc2)OC1 (stereo partly drawn) [Compound 48, (2R)-2-((3E,7E)-4,8-Dimethyl-11-(2-(4-nitrophenyl)-1,3-dioxan-5-ylidene)undeca-3,7-dien-1-yl)-5-(hydroxymethyl)-2,8-dimethylchroman-6-ol] |  |  | IC50 [2]: 210 ± 130 nM; remaining activity at 1 µM ([2]; read-out: 5-LOX enzyme residual activity at 1 μM): 14 ± 3.2%; IC50 [3]: 490 ± 130 nM; remaining activity at 3 µM ([3]; read-out: 5-LOX PMNL residual activity at 3 μM): 15.4 ± 1.9%
16 |  |  | C[C@@H]1C[C@H]2[C@@H]3CCC4=CC(=O)C=C[C@]4(C)[C@@]3(F)[C@@H](O)C[C@]2(C)[C@@]1(O)C(=O)CO [Dexamethasone, reference compound] |  |  | Cytokine-induced responses in RHE [5]: suppressed these cytokine-induced responses
17 |  |  | O=C1O[C@H]([C@@H](O)CO)C(O)=C1O [ascorbic acid, reference compound] |  |  | Scavenging of DPPH radicals [6]: 36 ± 11%
18 |  |  | CC(c1cc2ccccc2s1)N(O)C(N)=O (stereo not drawn) [zileuton, reference compound] |  |  | Cysteinyl-LTs in the exudate [7]: did not evoke a stronger effect

Row | Structure (SMILES) | remaining activity at 1 µM [2, 8] [%] | remaining activity at 3 µM [3, 9] [%] | IC50 [1] [nM] | IC50 [4] [nM] | other results
19 | CC(C)=CCC/C(C)=C/CC/C(C)=C/CC[C@]1(C)CCc2cc(O)c(C)c(C)c2O1 [Compound 6c] | 6.4 ± 3.2 | 73.5 ± 1.2 | 200 ± 60 | > 3000 | 
